Assay results reported in patent publication US20250052744A1, “Dyes and Uses Thereof” (The University of Liverpool, priority 2021, published 2025).

Legend:
Assay type in all cases: cell-based
[1] = system: E. Coli SEC 31; assay: Fluorescent signal intensity of stained bacteria (microscope, ImageJ)
Protocol: (§1) Firstly, all different bacterial strains were grown overnight in LB at 37° C. and 200 rpm. The mid-exponential phase cultures of bacterial strains were then diluted to a concentration of 10^5 cells·mL^−1 in LB. SYBR Green I, SYTO 13/9 and DiSC3(5) dyes were prepared by diluting them from their stocks.
(§2) The three dyes (SYBR Green I, SYTO 13/9 and DiSC3(5)) were then added in the final concentrations of 3 μM—DiSC3(5), 3 μM—SYTO 13/9 and 10× (diluted from the stock 10,000×)—SYBR Green I to the different bacterial strains and the strains incubated […] at 37° C. for 10 minutes in the dark.
(§3) The bacterial strains were then put on a haemocytometer and visualised under a microscope with fluorescent filters corresponding to individual dyes. Images were taken for all the bacterial strains at the same intensity of the incident laser light and 10-15 images were taken for each of the bacterial strains.
(§4) The images were then analysed on ImageJ software by first converting the coloured images to monochromatic images, then selecting an area with cells and analysing the plot profile. The intensity of the peaks and background from the image was then recorded.
(§5) A similar protocol to Example 1 was followed, with the addition of […] of FM 4-64.

[2] = system: P. Aeruginosa NCTC 10332; assay: as above
Protocol: as §1, §2, §3, §4, §5

[3] = system: Enterococcus faecium NCTCT 7171; assay: as above
Protocol: as §1, §2, §3, §4, §5

[4] = system: Klebsiella pneumoniae NCTC 9633; assay: as above
Protocol: as §1, §2, §3, §4, §5

[5] = system: S. Aureus NCTC 8532; assay: as above
Protocol: as §1, §2, §3, §4, §5

[6] = system: P. Mirabilis NCTC 11938; assay: as above
Protocol: as §1, §2, §3, §4, §5

[7] = system: Escherichia coli; assay: Qualitative dye staining on agarose pads (EVOS M7000); set-up: key to Relative fluorescent intensity: Very high: If the cells looked twice as big in the fluorescent channel, it was marked as having “very high” relative fluorescent intensity; High: if the cells looked bigger in the fluorescent channel, it was marked as having “high” relative fluorescent intensity; Medium: If the cells looked almost the same size in the fluorescent channel and the bright field, it was marked as having “medium” relative fluorescent intensity; Low: If the cells looked smaller in the fluorescent channel as compared to the brightfield but still the whole cell was visible, it was marked as having “low” relative fluorescent intensity; Negligible: If only a few traces of a cell was visible in the fluorescent channel, it was marked as having “negligible” relative fluorescent intensity; conditions: DiSC3(5) 3 μM, SYBR Green I 10×, SYTO 13 3 μM, FM4-64 15 μM
Protocol: An overnight culture was prepared by inoculating a bacterial colony in approximately 5 ml of Urine and incubating the culture in an orbital shaker at 37° C.
The following media and materials were utilised: Cation-adjusted Mueller Hinton broth (MHB); Phosphate Buffered Saline (PBS); Membrane staining dye—FM4-64 (1.5 mM); Live cell staining dye—DiSC3(5) (1 mM); DNA staining dye—SYBR Green (1000×); DNA staining dye—SYTO 13 (0.5 mM); Ultrapure Agarose; Parafilm; Glass slides and coverslips; Scalpel; and EVOS M7000 fluorescent microscope.
A pre-cut parafilm or a coverslip was used as a guide and 22 mm×22 mm squares cut from parafilm. A square was cut out of the centre of the parafilm (approximately 10 mm×10 mm). The centre of the cut-out was discarded. Two parafilm gaskets were placed onto a cleaned glass slide. The glass slide was then placed on a dry bath set to 56° C. so that the parafilm adhered to the glass slide. The glass slide was then kept on the dry bath. Using a microwave, ultrapure agarose was dissolved in PBS at a concentration of 1.2%. The agarose solution was kept on a dry bath set at 56° C. 60 μl of the agarose solution was pipetted in the centre of the parafilm gaskets. A coverslip was then placed over the gaskets without applying pressure on the coverslip. The slide was then placed on a cool surface and left to solidify for 1-2 minutes. The coverslips were then gently lifted off the agarose pads.
In a first Eppendorf, 15 μl of FM4-64 and 6 μl of SYTO 13 was added and in a second Eppendorf 10 μl of SYBR Green and 3 μl of DiSC3(5) was added. Depending on the bacterial growth in urine, an appropriate concentration of the bacterial culture was placed in the two Eppendorfs (final bacterial concentration 10^6 CFU/ml). MHB was added so as to achieve a final volume of 1 ml. Final concentrations of the dyes in the sample was as follows: DiSC3(5): 3 μM; SYBR Green I: 10× (originally supplied as 10,000×); SYTO 13: 3 μM; and FM4-64: 15 μM
4 μl of the contents of each Eppendorf were deposited on one agarose pad and the cells distributed across the agar surface by tilting the slide. The slide was left to dry for approximately 1 minute. A coverslip was then placed on top of the agarose pad. The slide was placed inside the microscope and incubated at 37° C. for 10 minutes. Using different light filters for each dye, an image of each pad at 40× magnification on an EVOS M7000 fluorescent microscope was captured. Eight images for each agarose pad was recorded (i.e. 8 each for brightfield and 2 fluorescent channels). For each agarose pad, 24 images were recorded. This corresponded to 48 images in total for each bacterial strain (2 agarose pads per strain). Table A below was used to take the images using the correct fluorescent channel and intensity (for imagining on any other instrument, the LED intensity will need to be normalised against the EVOS M7000).
To qualitatively calculate the relative fluorescent intensities, cell size was compared between brightfield and the fluorescent channel for a given fluorescent dye. If the cells are very fluorescent, they will appear bigger in the fluorescent channel as compared to the bright field. For our qualitative measurements, if the cells looked bigger in the fluorescent channel, it was marked as having “high” relative fluorescent intensity. If the cells looked twice as big in the fluorescent channel, it was marked as having “very high” relative fluorescent intensity. If the cells looked almost the same size in the fluorescent channel and the bright field, it was marked as having “medium” relative fluorescent intensity. If the cells looked smaller in the fluorescent channel as compared to the brightfield but still the whole cell was visible, it was marked as having “low” relative fluorescent intensity. If only a few traces of a cell was visible in the fluorescent channel, it was marked as having “negligible” relative fluorescent intensity.

[8] = Table 1, 3 μM DiSC3(5), 3 μM SYTO 13/9, 10× SYBR Green I, 37° C. for 10 minutes, background subtracted
[9] = Table 3, DiSC3(5) 3 uM, SYBR Green 10x, SYTO 13/9 3 uM, FM 4-64 15 uM
[10] = Table 6 thresholds, Escherichia coli
[11] = Table 7 commercial strain E. coli SEC 27
[12] = Table 7 commercial strain E. coli SEC 93
[13] = Table 8 sample Escherichia coli (051)
[14] = Table 8 sample Escherichia coli (052)
[15] = Table 8 sample Escherichia coli (053)

| SMILES | fluorescent signal intensity value, Average [1, 8] | fluorescent signal intensity value, Average [1, 9] | fluorescent signal intensity value, Average [2, 8] | fluorescent signal intensity value, Average [2, 9] | fluorescent signal intensity value, Average [3, 9] | fluorescent signal intensity value, Average [4, 9] | fluorescent signal intensity value, Average [5, 9] | fluorescent signal intensity value, Average [6, 9] | Percentage of cells stained [7, 10] | Relative fluorescent intensity [7, 10] | Percentage of cells stained [7, 11] | Relative fluorescent intensity [7, 11] | Percentage of cells stained [7, 12] | Relative fluorescent intensity [7, 12] | Percentage of cells stained [7, 13] | Relative fluorescent intensity [7, 13] | Percentage of cells stained [7, 14] | Relative fluorescent intensity [7, 14] | Percentage of cells stained [7, 15] | Relative fluorescent intensity [7, 15] | further results |
| --- | --- | --- | --- | --- | --- | --- | --- | --- | --- | --- | --- | --- | --- | --- | --- | --- | --- | --- | --- | --- | --- |
| CCCN(CCCN(C)C)c1cc(/C=C2/Sc3ccccc3N2C)c2ccccc2[n+]1-c1ccccc1 [SYBR Green I, N′,N′-dimethyl-N-[4-[(E)-(3-methyl-1,3-benzothiazol-2-ylidene)methyl]-1-phenylquinolin-1-ium-2-yl]-N-propylpropane-1,3-diamine] | 104.53 | 104.53 | 123.67 | 123.67 | 162.27 | 21.87 | 196.52 | 109.85 | Almost all | Medium | Almost all | Medium | Almost all | Medium | Almost all | Medium | Almost all | Medium | Almost all | Medium | fluorescent signal intensity value, Average [3, 8]: 162.27; fluorescent signal intensity value, Average [4, 8]: 21.87; fluorescent signal intensity value, Average [5, 8]: 196.52; fluorescent signal intensity value, Average [6, 8]: 109.85 |
| CCCN1C(=CC=CC=Cc2sc3ccccc3[n+]2CCC)Sc2ccccc21.[I-] [DiSC3(5), 3,3′-Dipropylthiadicarbocyanine Iodide] | 62.66 | 62.66 | 0.00 | 0.00 | 142.28 | 16.70 | 184.80 | 88.50 | Almost all | Medium | Almost all | Medium | Almost all | Medium | Almost all | Medium | Almost all | Medium | Almost all | Medium | fluorescent signal intensity value, Average [3, 8]: 142.28; fluorescent signal intensity value, Average [4, 8]: 16.70; fluorescent signal intensity value, Average [5, 8]: 184.80; fluorescent signal intensity value, Average [6, 8]: 88.50 |
| CCN(CC)c1ccc(C=CC=CC=Cc2cc[n+](CCC[N+](CC)(CC)CC)cc2)cc1.[Br-].[Br-] [FM 4-64, N-(3-Triethylammoniumpropyl)-4-(6-(4-(Diethylamino) Phenyl) Hexatrienyl) Pyridinium Dibromide] | – | 56.50 | – | 10.00 | 25.00 | 30.00 | 89.00 | 0.00 | Almost all | Medium | Almost all | Medium | Almost all | Medium | Almost all | Medium | Almost all | Medium | Almost all | Medium | – |
